Laboratory results taken from PMC5648829 (Scientific Reports, 2017).
Where a SMILES comes first, the peptide text is derived from it.

Key:
sputum neutrophils = tested on: sputum neutrophils; design: method as in PMID 27806191; conditions: cystic fibrosis patients; cited from earlier work
[1] = tested on: asthma bronchial allergen challenge; design: method as in PMID 25018015; conditions: asthma bronchial allergen challenge trial; cited from earlier work
[2] = PGP degradation assay in BALF ex-vivo (LC-MS/MS); type: in vitro ADME, mouse
Procedure: 200 µl of BALF were spiked with PGP and Ac-PGP at the final concentration of 10 nM. […] After incubation, samples were filtered (Amicon Ultra-0.5, Membrane Ultracel-30, PMNL 30 kD) by centrifugation (3 min at 10,000 × g). Filtered samples were transferred to vials for liquid chromatography tandem mass spectrometry (LC-MS/MS) analysis. The LC system consisted of an Acquity UPLC I-Class interfaced with a Xevo-TQS triple quadruple MS (Waters). […] PGP was monitored with MRM m/z transitions of 270.1 > 173.1 (quantifier) and 270.1 > 70.1 and 270.1 > 116.1 (qualifiers). Ac-PGP was monitored with m/z transitions of 312.2 > 112.1 (quantifier) and 312.2 > 116.1 and 312.2 > 140.1 (qualifiers).

[3] = tested on: neutrophil influx into dorsal air-pouch; assay: Air-pouch model of acute inflammation; type: in vivo, mouse; conditions: for PGP concentration in air-pouch exudate: PGP 500 μg/mouse
Procedure: Air-pouches were formed by subcutaneous injection of 5 ml air through a 0.22 μm filter on the backs of female LTA4H KO or wt mice. The patency of the cavity was maintained by a further 3 ml injection on day 3. Six days after the initial injection of air, LPS at 10 µg/animal and PGP, Ac-PGP, at different concentrations up to 500 µg/animal were injected into the air pouches. […] An incision was made on the top of the pouch and the injected lavage fluid pipetted out into an eppendorf tube. An aliquot of air pouch lavage fluid was used to determine total cell counts on an Advia 120® Haematology Analyser. To determine differential cell counts, cytospins were prepared for all pouch fluid samples. The cytospins were air dried prior to staining with DiffQwik differential staining solutions. Differential cell counts were performed manually (x200 magnification) to determine the percentage of neutrophil and non-neutrophil cell populations in each sample.

[4] = tested on: neutrophil influx into lungs; assay: Stimulation of lungs with PGP and Ac-PGP (intra-tracheal); type: in vivo, mouse; conditions: PGP up to 500 μg intra-tracheal, wt or LTA4H KO mice, 24 h
Procedure: PGP or Ac-PGP in increasing doses up to 500 ug per mouse were applied by intra-tracheal administration in 50 µl PBS to female LTA4H KO or wild type mice. After 24 h, the mice were euthanized and BALF was collected by cannulating the trachea with a catheter and lavaging the lungs 3 times with 0.4 ml cold PBS. The lavage fluid was then centrifuged and the cells analyzed by flow cytometry. Cell supernatants were used for analysis of MPO and cytokine content in BALF.

human neutrophils [5] = assay: Human neutrophil shape change assay; type: cell-based; conditions: up to 100 μM
Procedure: Neutrophils were purified by Ficoll density gradient centrifugation from human blood and incubated with graded concentrations of PGP, Ac-PGP or the known neutrophil chemoattractant GROα in assay buffer containing BSA (0.1%) in PBS for 10 min at 37 °C, 5% CO2 and 90% humidity. Cells were then fixed and shape change analyzed by flow cytometry.

human neutrophils [6] = assay: Human neutrophil chemotaxis assay; type: cell-based; conditions: graded concentrations up to mM range, 90 min at 37 °C
Procedure: Purified human neutrophils were labeled with calcein-AM (Fluka, Buchs, Switzerland). Test compounds (PGP, Ac-PGP, RTR, and Ac-RTR) or IL-8 (Sigma) as positive chemoattractant control were diluted in RPMI containing BSA (0.1%) and added at graded concentrations into the wells of a 96-well ChemoTX plate (3.2 mm diameter, 5 µm pore size; NeuroProbe, Gaithersburg, MD). Labeled cells (50,000 per well) were added onto the filters above the wells that received the test compounds. Plates were incubated for 90 min at 37 °C. The filters were removed and fluorescence in the receiving wells was measured using a SpectraMAX Gemini EM instrument (Molecular Devices, Sunnyvale, CA; λex = 485 nm; λem = 538 nm). The chemotactic index was measured as the ratio of fluorescence in the test wells and in control (buffer only) wells.

human neutrophils [7] = assay: Human neutrophil calcium flux assay; type: cell-based; conditions: up to mM concentrations
Procedure: Purified human neutrophils were incubated in Calcium 5 loading buffer (Molecular Devices) containing Probenecid (2.5 mM, SIGMA) at 37 °C, 5% CO2 and 90% humidity for 1 h. 20 µl of the cell suspension were then transferred to a black 384-well plate with clear bottom and centrifuged at 100 g for 4 min. Test compounds PGP, Ac-PGP and fMLP (SIGMA) were prepared at graded concentrations in HBSS containing HEPES (20 mM). Fluorescence was measured in FLIPR Tetra reader (Molecular Devices) every second before and after the addition of 5 µl of compounds dilutions. The calculated F index is the difference between the maximum signal and the average baseline signal, divided by the average baseline signal.

human neutrophils [8] = assay: ROS generation in human neutrophils; type: cell-based; conditions: up to mM concentrations
Procedure: Purified human neutrophils were plated in RPMI + FCS (5%) in 96-well cell culture plates (100,000 cells/well). Dihydrorhodamine 123 (SIGMA) was added at a final concentration of 3 µM together with PGP, Ac-PGP and fMLP (SIGMA) at graded concentrations and incubated for 30 min at 37 °C, 5% CO2 and 90% humidity. […] Amount of generated ROS is given as GMFI (sample)/GMFI (unstimulated control).

human neutrophils [9] = tested on: human neutrophils; design: method as in earlier work; conditions: ref 27 Haddox et al.; read-out: EC50 chemotaxis of human neutrophils; cited from earlier work
LTA4H = biological target: T1, LTA4H (Homo sapiens, UniProt P09960); assay: PGP degradation assay in human blood; type: cell-based; design: Fresh blood was collected in heparinized tubes by venipuncture from volunteers; from tissue; host or cells: fresh human whole blood from volunteers, diluted 1:3 in RPMI; conditions: untreated and LPS stimulated blood, 24 h at 37 °C
T1 sequence (P09960 1-611): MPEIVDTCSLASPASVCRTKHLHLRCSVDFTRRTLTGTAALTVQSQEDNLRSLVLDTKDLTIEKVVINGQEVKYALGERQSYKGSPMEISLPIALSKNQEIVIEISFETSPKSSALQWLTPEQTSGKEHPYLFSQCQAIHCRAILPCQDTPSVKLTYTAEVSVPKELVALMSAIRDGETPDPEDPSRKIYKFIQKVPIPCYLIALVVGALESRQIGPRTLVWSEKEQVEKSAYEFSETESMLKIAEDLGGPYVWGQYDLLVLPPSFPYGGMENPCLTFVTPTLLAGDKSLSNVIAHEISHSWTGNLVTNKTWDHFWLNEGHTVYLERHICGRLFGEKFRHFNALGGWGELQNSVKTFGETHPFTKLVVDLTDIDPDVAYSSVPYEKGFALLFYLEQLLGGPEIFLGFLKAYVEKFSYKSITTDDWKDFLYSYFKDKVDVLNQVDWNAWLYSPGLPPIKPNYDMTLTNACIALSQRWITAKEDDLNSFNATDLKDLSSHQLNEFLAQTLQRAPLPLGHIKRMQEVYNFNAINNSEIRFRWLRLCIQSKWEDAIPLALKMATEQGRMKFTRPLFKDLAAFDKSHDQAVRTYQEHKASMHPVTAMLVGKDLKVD
Procedure: Fresh blood was collected in heparinized tubes by venipuncture from volunteers from the Novartis Blood Donor Center, Basel. The blood was diluted 1:3 in Roswell Park Memorial Institute (RPMI) containing HEPES (0.025 M). […] PGP and LPS were added at final concentrations of 2 µg/ml each and incubated up to 24 h at 37 °C, 5% CO2 and 90% humidity before samples were collected for LC-MS/MS analysis.

SMILES: O=C(O)c1ccc(CN2C[C@@H]3C[C@H]2CN3Cc2ccc(Oc3ccc(-c4ncco4)cc3)cc2)cc1 [Acebilustat]
- reduction of sputum neutrophils (sputum neutrophils): 65%

SMILES: CC(=O)NC1C[C@H]2CC[C@@H](C1)N2Cc1ccc(Oc2nc3ncccc3s2)cc1 (some centres unmarked) [JNJ-40929837]
- clinical efficacy [1]: did not show efficacy

SMILES: O=C(NCC(=O)N1CCC[C@H]1C(=O)O)[C@@H]1CCCN1 [PGP, H-Pro-Gly-Pro] (H-Pro-Gly-Pro-OH)
- PGP level after spiking into BALF ([2]; BALF from LPS challenged wt mice, PGP 10 nM, 4 h at 37 °C): undetectable levels
- PGP still present ([2]; exudate (BALF) of LTA4H KO mice, after 24 h): over 80%
- cell influx in air-pouch ([3]; 500 μg PGP, LTA4H KO mice, 24 h): failed to detect significant cell influx
- PGP concentration in air-pouch exudate ([3]; LTA4H KO mice, 1 h after injection): approximately 1 µg/ml
- PGP concentration in air-pouch exudate ([3]; LTA4H KO mice, 4 h and 24 h after injection): no PGP was detectable
- cell numbers (neutrophil influx) in air-pouch ([3]; PGP up to 500 μg per air-pouch, Balb/c mice, 4 h): did not show elevated cell numbers compared to saline control
- neutrophil influx in air-pouch ([3]; mice pre-treated with 30 mg/kg DG-051 before PGP injection, 4 h): unable to detect neutrophil influx
- influx of neutrophils by flow cytometry of BALF cells [4]: neither able to detect influx of neutrophils
- myeloperoxidase (MPO) in BALF ([4]; versus PBS control): nor elevation of myeloperoxidase (MPO) beyond the PBS control
- neutrophil shape change response (human neutrophils [5]): no response
- neutrophil chemotaxis (human neutrophils [6]): no significant increase in chemotaxis
- induction of Ca2+ flux (human neutrophils [7]): neither PGP nor Ac-PGP induced
- ROS production (human neutrophils [8]): neither PGP nor Ac-PGP induced
- EC50 (human neutrophils [9]): 15 mM
- Degradation of PGP in human blood (LTA4H): complete disappearance
